# Data published in ChEMBL document CHEMBL1137482, “Carbonic anhydrase inhibitors: cloning, characterization, and inhibition studies of the cytosolic isozyme III with sulfonamides” (Bioorg Med Chem, 2007).
# Target: Carbonic anhydrase 3 (Homo sapiens, UniProt P07451)
# Sequence (P07451 whole entry): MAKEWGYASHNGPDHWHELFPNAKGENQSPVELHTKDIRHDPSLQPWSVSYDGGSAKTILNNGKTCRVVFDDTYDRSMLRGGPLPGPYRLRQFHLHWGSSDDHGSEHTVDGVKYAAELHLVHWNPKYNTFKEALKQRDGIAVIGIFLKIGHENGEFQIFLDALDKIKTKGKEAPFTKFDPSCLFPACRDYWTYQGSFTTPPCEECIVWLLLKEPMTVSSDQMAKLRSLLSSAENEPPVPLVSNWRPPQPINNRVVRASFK
row,Structure (SMILES),Ki
1,Nc1nnc(S(N)(=O)=O)s1,148 µM
2,Nc1ccc(S(=O)(=O)Nc2nnc(S(N)(=O)=O)s2)cc1,18.1 µM
3,Nc1nccc(Nc2ccc(S(N)(=O)=O)cc2)n1,2630 µM
4,Nc1ccccc1S(N)(=O)=O,887 µM
5,Cn1nc(S(N)(=O)=O)sc1=N,198 µM
6,Nc1ccc(S(N)(=O)=O)cc1F,2070 µM
7,Nc1ccc(S(=O)(=O)NCCc2ccc(S(N)(=O)=O)cc2)cc1,140 µM
8,NS(=O)(=O)c1ccc(S(=O)(=O)Nc2cccc3c(Cl)c[nH]c23)cc1,10.4 µM
9,"CCNC1CN(CCCOC)S(=O)(=O)c2sc(S(N)(=O)=O)cc21 (single isomer, unassigned) [BRINZOLAMIDE]",110 µM
10,Cc1ccc(-c2cc(C(F)(F)F)nn2-c2ccc(S(N)(=O)=O)cc2)cc1 [CELECOXIB],154 µM
11,NS(=O)(=O)c1cc(Cl)c(Cl)c(S(N)(=O)=O)c1 [DICHLORPHENAMIDE],684 µM
12,O=C1NS(=O)(=O)c2ccccc21 [SACCHARIN],1000 µM
13,CCN1CCCC1CNC(=O)c1cc(S(N)(=O)=O)ccc1OC (configuration not stated) [SULPIRIDE],10.6 µM
14,CC1(C)O[C@@H]2[C@@H](CO[C@@]3(COS(N)(=O)=O)OC(C)(C)O[C@@H]23)O1 [TOPIRAMATE],780 µM

# Results, then the compound that gave them:
row,Ki,Structure (SMILES)
1,114 µM,Nc1ccc(S(=O)(=O)NCc2ccc(S(N)(=O)=O)cc2)cc1
2,1190 µM,NS(=O)(=O)c1ccc(CCO)cc1
3,4890 µM,NS(=O)(=O)c1ccc(CO)cc1
4,710 µM,Nc1ccc(S(N)(=O)=O)cc1Cl
5,11.3 µM,NS(=O)(=O)c1ccc(C(=O)O)cc1 [CARZENIDE]
6,681 µM,NCc1ccc(S(N)(=O)=O)cc1 [MAFENIDE]
7,7.9 µM,Cc1ccc(S(N)(=O)=O)cc1 [P-TOLUENESULFONAMIDE]
8,988 µM,Nc1ccc(S(N)(=O)=O)cc1 [SULFANILAMIDE]
